Literature values, collected in patent US20090234270A1, “Therapy and device for treatment of nail infections” (Ondine International, Ltd., priority 2008, published 2009).

What was measured:
[1] = in vivo, po

Structure (SMILES)	side effects [1]	other results
OC(Cn1cncn1)(Cn1cncn1)c1ccc(F)cc1F [Fluconazole]	severe side effects	–
COC1=CC(=O)C[C@@H](C)[C@]12Oc1c(Cl)c(OC)cc(OC)c1C2=O [Griseofulvin]	undesired side effects	efficacy in onychomycosis (onychomycosis; oral medicine): largely ineffectual
CN(C/C=C/C#CC(C)(C)C)Cc1cccc2ccccc12 [Lamisil, terbinafine]	–	nail clearing, share of patients (onychomycosis; oral, once a day for 90 days, clearing for one year): 70-80%
CC12CCC(CC1=O)C2(C)C (stereo not drawn) [camphor]	–	solubility in water: poorly soluble in water
CCC(C)n1ncn(-c2ccc(N3CCN(c4ccc(OCC5COC(Cn6cncn6)(c6ccc(Cl)cc6Cl)O5)cc4)CC3)cc2)c1=O (stereo not drawn) [itraconazole]	somewhat severe	–
